Where two headings read alike, the source gives them in different places.
Assays:
[1] = system: alkaline phosphatase (ALP); test: cells; details: Mus musculus; for activation at 10 µM: C2C12, 96 h
Source text: (§1) To identify small-molecule activators of osteoblast differentiation, we measured ALP activity using a fluorescent emission assay as a reporter for enzymatic digestion of ALP substrate in lysates derived from C2C12 myoblasts. […] Therefore, before screening, the assay was calibrated using recombinant human BMP4 protein as a positive control. Compounds were robotically deposited onto 384-well plates and then overlaid by C2C12 cells for a 4-day culture period, followed by lysis and fluorescent substrate assays (FIG. 1A; Table 1). To ensure uniformity, C2C12 cells were maintained in normal culture medium containing 10% fetal bovine serum, and lysis and substrate addition achieved using a microplate multidrop device. The primary screen (Table 2) encompassed greater than 47,000 small molecules tested at a final concentration of 10 μM.
(§2) For the primary screen, library compounds were distributed onto 384-well microplates (Greiner Bio-One 781091) at a final concentration of 10 μM in culture medium using a Perkin Elmer Janus automated workstation and WinPrep Version 4.8.3.315. Positive (rhBMP4, 1 ng/ml, R&D Systems) and negative controls (DMSO, 0.2%) were manually added to each plate by multichannel pipet. C2C12 cells were seeded onto compounds and controls at a density of 2000/well using a Thermo Multidrop Combi reagent dispenser and cultured for 4 days at 37° C., 5% CO2. Culture medium was aspirated using a BioTek EL406 plate washer and cells were lysed in RIPA buffer (Millipore 20-188) at ambient temperature for 10 minutes. 10 μl fluorescent alkaline phosphatase substrate (AttoPhos, Promega S1000) was added to lysates and incubated an additional 10 minutes before measuring the fluorescence (Excitation 450 nm/Emission 580 nm) on a BioTek Synergy Neo2 stacking microplate reader. Plates were processed and relative fluorescence raw values measured in stacks of 10-20. The data were processed using Collaborative Drug Discovery web-based software (CDD Vault) to determine Z score calculated on DMSO control wells and percent activation normalized against positive and negative controls (NPA). Cherry-picked hit candidates were re-tested in concentration response experiments, from which 4 candidates were chosen and purchased for further testing from either ChemBridge or Enamine, based on availability.
(§3) We also purchased a library of 154 structural chemical analogs assembled by ChemBridge Corp. from available screening library compounds.

[2] = system: alkaline phosphatase (ALP); details: for RFU Score (10 μM): 154-analog library, C2C12, duplicate; for RFU Score Threshold ≥ 800: Ex 450/Em 580 nm, rank in brackets not taken; for Fluorescence Z Score Threshold ≥ 10: Z score on DMSO control wells
Source text: as §1, §2, §3

[3] = read-out: NPA Score Threshold ≥ 5.0 (normalized percent activation)
[4] = primary screen, 10 μM, C2C12, 4 days

COc1cccc(-c2[nH]cnc2-c2ccccc2)c1OCCN(C)C [RU-0247047]
activation at 10 µM [1]: 9.73% | RFU Score (10 μM) ([2]; 10 μM): 558

C=CCc1cc(-c2[nH]cnc2-c2ccccc2)cc(OC)c1O [RU-0248392]
activation at 10 µM [1]: 4.98% | RFU Score (10 μM) ([2]; 10 μM): 423

CN(C)CC1(O)CCN(C(=O)c2[nH]cnc2-c2ccccc2)C1 (stereo not shown) [RU-0248829]
activation at 10 µM [1]: 1.52% | RFU Score (10 μM) ([2]; 10 μM): 325

c1ccc(-c2nc[nH]c2-c2ccccc2OCCCN2CCOCC2)cc1 [RU-0248967]
activation at 10 µM [1]: 7.58% | RFU Score (10 μM) ([2]; 10 μM): 512

CN1CCC(Cc2noc(-c3[nH]cnc3-c3ccccc3)n2)CC1 [RU-0249023]
activation at 10 µM [1]: 0.4% | RFU Score (10 μM) ([2]; 10 μM): 293

c1ccc(-c2nc[nH]c2-c2ccc(OCCn3ccnc3)cc2)cc1 [RU-0249817]
activation at 10 µM [1]: 9.84% | RFU Score (10 μM) ([2]; 10 μM): 561

O=C(CCc1n[nH]c2c1CCCC2)N1CCC2(CCCO2)CC1 [RU-0250369]
activation at 10 µM [1, 3]: 5.46% | RFU Score Threshold ≥ 800 [2, 4]: Below Threshold | Fluorescence Z Score Threshold ≥ 10 [2, 4]: Below Threshold

O=C(NC1CC(=O)N(CCc2ccccc2)C1)c1[nH]cnc1-c1ccccc1 (stereo not shown) [RU-0252250]
activation at 10 µM [1]: 8.85% | RFU Score (10 μM) ([2]; 10 μM): 533

CN1CC2(CCN(C(=O)c3[nH]cnc3-c3ccccc3)C2)OC1=O (stereo not shown) [RU-0253075]
activation at 10 µM [1]: 7.71% | RFU Score (10 μM) ([2]; 10 μM): 500

Cc1cc(C)c2[nH]c(=O)c(-c3nccn3CCc3cn[nH]c3)cc2c1 [RU-0253216]
activation at 10 µM [1]: 2.09% | RFU Score (10 μM) ([2]; 10 μM): 341

CCN1CCN(CCOc2ccccc2-c2[nH]cnc2-c2ccccc2)CC1 [RU-0253941]
activation at 10 µM [1]: 9.34% | RFU Score (10 μM) ([2]; 10 μM): 547

c1cc2c(cc1NC1CCCNC1)OCCO2 (stereo not shown) [RU-0256394]
activation at 10 µM [1, 3]: 5.87% | RFU Score Threshold ≥ 800 [2, 4]: Below Threshold | Fluorescence Z Score Threshold ≥ 10 [2, 4]: Below Threshold

Cc1cc(C)c2[nH]c(=O)c(CN(C)Cc3c(C)noc3C)cc2c1 [RU-0259020]
activation at 10 µM [1]: 8.18% | RFU Score (10 μM) ([2]; 10 μM): 514

CN(C)CC1(O)CCCN(S(=O)(=O)c2ccc(-c3ccccc3)cc2)CC1 (stereo not shown) [RU-0259574]
activation at 10 µM [1, 3]: 9.87% | RFU Score Threshold ≥ 800 [2, 4]: 903 (16) | Fluorescence Z Score Threshold ≥ 10 [2, 4]: Below Threshold

CC(=O)Nc1ccc2nc(-c3[nH]cnc3-c3ccccc3)ccc2c1 [RU-0260066]
activation at 10 µM [1]: 6.14% | RFU Score (10 μM) ([2]; 10 μM): 456

O=C(c1[nH]cnc1-c1ccccc1)N1CCOC(c2ccc(Cl)cc2)C1 (stereo not shown) [RU-0261164]
activation at 10 µM [1]: 9.24% | RFU Score (10 μM) ([2]; 10 μM): 544

c1ccc2c(N3CCN(Cc4cc5n(n4)CCCNC5)CC3)nsc2c1 [RU-0261349]
activation at 10 µM [1, 3]: 5.04% | RFU Score Threshold ≥ 800 [2, 4]: 884 (18) | Fluorescence Z Score Threshold ≥ 10 [2, 4]: 11.32 (22)

CCC(c1cccnc1)N(C)Cc1cc2cc(C)cc(C)c2[nH]c1=O (stereo not shown) [RU-0261450]
activation at 10 µM [1]: 9.03% | RFU Score (10 μM) ([2]; 10 μM): 538

O=C(N[C@H]1CC[C@H](n2cnnc2)CC1)c1[nH]cnc1-c1ccccc1 [RU-0261757]
activation at 10 µM [1]: 7.99% | RFU Score (10 μM) ([2]; 10 μM): 508

COc1ccc(-c2[nH]nnc2-c2ccccc2)cc1Cn1cncn1 [RU-0262240]
activation at 10 µM [1]: 7.55% | RFU Score (10 μM) ([2]; 10 μM): 496

CN1CCC(Cc2noc(CCC(=O)c3ccccc3)n2)CC1 [RU-0262489]
activation at 10 µM [1, 3]: 5.43% | RFU Score Threshold ≥ 800 [2, 4]: Below Threshold | Fluorescence Z Score Threshold ≥ 10 [2, 4]: Below Threshold

O=C1NCC2(CCCN(C(=O)c3[nH]cnc3-c3ccccc3)C2)O1 (stereo not shown) [RU-0264094]
activation at 10 µM [1]: 10.6% | RFU Score (10 μM) ([2]; 10 μM): 583

COc1cccc(-c2[nH]cnc2-c2ccccc2)c1OCCn1ccnc1 [RU-0265092]
activation at 10 µM [1]: 6.93% | RFU Score (10 μM) ([2]; 10 μM): 478

Cc1cc(C)c2[nH]c(=O)c(-c3c(-c4ccccc4)ncn3C3CCNC3)cc2c1 (stereo not shown) [RU-0266582]
EC50 ([1]; C2C12): 1.42 µM | Fluo. Z Score ([2]; SAR of library and proprietary analogs, AttoPhos assay, C2C12): 0.48 ± 1.10

Cc1cc(C)c2[nH]c(=O)c(CN3CCOC4(CNCCOC4)C3)cc2c1 (stereo not shown) [RU-0267267]
activation at 10 µM [1]: 9.71% | RFU Score (10 μM) ([2]; 10 μM): 557

C=CCN(Cc1ccc(F)cc1)C(=O)c1c[nH]c2c(C)cccc2c1=O [RU-0268068]
activation at 10 µM [1, 3]: 5.81% | RFU Score Threshold ≥ 800 [2, 4]: Below Threshold | Fluorescence Z Score Threshold ≥ 10 [2, 4]: Below Threshold

O=C(c1[nH]cnc1-c1ccccc1)N1C[C@H](O)[C@@H](N2CCOCC2)C1 [RU-0268325]
activation at 10 µM [1]: 2.04% | RFU Score (10 μM) ([2]; 10 μM): 339

CCOC(=O)N1CCC(Nc2ncnc3ccsc23)CC1 [RU-0269711, ethyl 4-(thieno[2,3-e]pyrimidin-4-ylamino)piperidine-1-carboxylate]
EC50 ([1]; C2C12, read-out: Measured EC50): 28.3 µM | RFU Score Threshold ≥ 800 [2, 4]: 1070 (7) | Fluorescence Z Score Threshold ≥ 10 [2, 4]: 14.73 (15) | NPA Score Threshold ≥ 5.0 (normalized percent activation) ([2]; primary screen, 10 μM, C2C12, 4 days, normalized against rhBMP4 positive and DMSO negative controls): Below Threshold

CN(C)CC1(O)CCCN(C(=O)c2[nH]cnc2-c2ccccc2)C1 (stereo not shown) [RU-0424441]
activation at 10 µM [1]: 3.04% | RFU Score (10 μM) ([2]; 10 μM): 368

CN1CCN(C(=O)c2[nH]cnc2-c2ccccc2)CC1C(=O)O (stereo not shown) [RU-0424442]
activation at 10 µM [1]: 0.18% | RFU Score (10 μM) ([2]; 10 μM): 287

CCOc1cccc(-c2[nH]cnc2-c2ccccc2)c1OCC(=O)O [RU-0424443]
activation at 10 µM [1]: 0.87% | RFU Score (10 μM) ([2]; 10 μM): 306

Cc1cc(C)c2[nH]c(=O)c(CN(C)CCc3scnc3C)cc2c1 [RU-0424444]
activation at 10 µM [1]: 5.79% | RFU Score (10 μM) ([2]; 10 μM): 446

Cc1ccc2[nH]c(C(=O)O)c(-c3[nH]cnc3-c3ccccc3)c2c1 [RU-0424445]
activation at 10 µM [1]: 4.67% | RFU Score (10 μM) ([2]; 10 μM): 364

O=C(c1[nH]cnc1-c1ccccc1)N1CCc2onc(-c3ccccc3)c2C1 [RU-0424446]
activation at 10 µM [1]: 1.54% | RFU Score (10 μM) ([2]; 10 μM): 325

Cc1cc(C)c2[nH]c(=O)c(CN(C)Cc3nc(-c4cccnc4)no3)cc2c1 [RU-0424447]
activation at 10 µM [1]: 0.54% | RFU Score (10 μM) ([2]; 10 μM): 297

Cc1cc(C)c2[nH]c(=O)c(CN3C[C@@H](C)O[C@@H](C)C3)cc2c1 [RU-0424448]
activation at 10 µM [1]: -1% | RFU Score (10 μM) ([2]; 10 μM): 253

Cc1cc(C)c2[nH]c(=O)c(CN3CCC(c4nncn4C)CC3)cc2c1 [RU-0424449]
activation at 10 µM [1]: 0.1% | RFU Score (10 μM) ([2]; 10 μM): 284

Cc1nn(C)c(N2CCOCC2)c1-c1[nH]cnc1-c1ccccc1 [RU-0424450]
activation at 10 µM [1]: 0.24% | RFU Score (10 μM) ([2]; 10 μM): 288

Cc1cc(C)c2[nH]c(=O)c(CN(Cc3nccn3C)C3CC3)cc2c1 [RU-0424451]
activation at 10 µM [1]: 0.82% | RFU Score (10 μM) ([2]; 10 μM): 305

Cc1cc(C)c2[nH]c(=O)c(CN3CCC(CN)C3)cc2c1 (stereo not shown) [RU-0424452]
activation at 10 µM [1]: 1.65% | RFU Score (10 μM) ([2]; 10 μM): 328

O=C(c1[nH]cnc1-c1ccccc1)N1CC(c2cccnc2)C1 [RU-0424453]
activation at 10 µM [1]: 1.46% | RFU Score (10 μM) ([2]; 10 μM): 323

O=C(c1[nH]cnc1-c1ccccc1)N1CCN2C(=O)OCC2C1 (stereo not shown) [RU-0424454]
activation at 10 µM [1]: 1.83% | RFU Score (10 μM) ([2]; 10 μM): 333

O=C(c1[nH]cnc1-c1ccccc1)N1CCc2[nH]nc(-c3ccccc3)c2C1 [RU-0424455]
activation at 10 µM [1]: 2.3% | RFU Score (10 μM) ([2]; 10 μM): 347

Cc1cc(C)c2[nH]c(=O)c(CN3CCC(Oc4ncccn4)CC3)cc2c1 [RU-0424456]
activation at 10 µM [1]: 0.99% | RFU Score (10 μM) ([2]; 10 μM): 310

Cc1cc(C)c2[nH]c(=O)c(CN3CCCC(CS(C)(=O)=O)C3)cc2c1 (stereo not shown) [RU-0424457]
activation at 10 µM [1]: 0.13% | RFU Score (10 μM) ([2]; 10 μM): 285

Cc1cc(C)c2[nH]c(=O)c(CN3CCCC(N4CCCC4=O)C3)cc2c1 (stereo not shown) [RU-0424458]
activation at 10 µM [1]: 0.87% | RFU Score (10 μM) ([2]; 10 μM): 306

Cc1cc(C)c2[nH]c(=O)c(CN(C)Cc3noc(C4CC4)n3)cc2c1 [RU-0424459]
activation at 10 µM [1]: 3.58% | RFU Score (10 μM) ([2]; 10 μM): 383

O=C(c1[nH]cnc1-c1ccccc1)N1CCC(O)(CO)CC1 [RU-0424460]
activation at 10 µM [1]: 5.19% | RFU Score (10 μM) ([2]; 10 μM): 429

Cc1cc(C)c2[nH]c(=O)c(-c3nccn3[C@@H]3CS(=O)(=O)C[C@H]3O)cc2c1 [RU-0424461]
activation at 10 µM [1]: 4.15% | RFU Score (10 μM) ([2]; 10 μM): 399

Cc1cc(C)c2[nH]c(=O)c(C3CC(=O)NCc4nc5ccccn5c43)cc2c1 (stereo not shown) [RU-0424462]
activation at 10 µM [1]: 7.81% | RFU Score (10 μM) ([2]; 10 μM): 503

CC1(C2CCN(C(=O)c3[nH]cnc3-c3ccccc3)CC2)NC(=O)NC1=O (stereo not shown) [RU-0424463]
activation at 10 µM [1]: 4.96% | RFU Score (10 μM) ([2]; 10 μM): 422

CCCN(Cc1nccn1C)C(=O)c1[nH]cnc1-c1ccccc1 [RU-0424464]
activation at 10 µM [1]: 1.72% | RFU Score (10 μM) ([2]; 10 μM): 330

Reference: US11478466B2, “Small molecule promoting osteoblast differentiation” (Cornell University, priority 2019, dated 2022)
